In patent US4252947A, “Novel quinazolinone” (Roussel Uclaf, priority 1976, dated 1981):
Counter-ions that a name gives are not always drawn.

Key:
[1] = test system: Eimeria tenella; test: Coccidiostatic activity in chicks infested with Eimeria tenella; format: in vivo; conditions: for weight gain / weight gain (or less) as compared to the animals which received product A-B: chicks infested with Eimeria tenella; for weight gain: 14 to 22 days old; for weight gain / weight gain (or less) as compared to the animals which received product A-B / consumption index: feed with 1 ppm of Product A or 3 ppm of Product A-B; for weight gain (or less) as compared to the animals which received product A-B: relative to product A-B; for consumption index: feed consumed compared to weight gain, higher = more sick
Excerpt: The coccidiostatic activity of the product of Step E of Example 1 (product A) was studied in comparison with that of a racemic mixture of 7-bromo-6-chloro-3-[3-(3-hydroxy-2-piperidyl)-acetonyl]-4(3H)-quinazolinone (product A-B), 14 day old chicks were weighed and were divided into 3 groups of 13 animals. One group received a feed containing 1 ppm of product A, a second group received a feed containing 3 ppm of product A-B and the 3rd group received just the feed without any additive. The next day, the chicks were infested with Eimeria tenella coccidies and when the chicks were 22 days old, they were weighed as well as the remaining feed. The caecums were removed and the number of caecal lesions were noted. Also noted was (1) the weight of gain (or less) of the chicks as compared to the animals which received product A-B, (2) consumption index which is the amount of feed consumed compared to the weight gain which indice was all the more elevated than the animals which were more sick and (3) the intensity of the lesions on a seal of 1 to 6 were noted.

[2] = Oral acute toxicity (LD50, method of Finney); format: in vivo; conditions: Swiss female mice; for LD50: mouse, in vivo, dose which caused death in 50% of the animals
Experimental: The oral acute toxicity was determined for products A and A-B on groups of Swiss female mice by the method of Finney and the results were expressed as LD50 (the dose which caused death in 50% of the animals). The DL50 for product A was 3.7 mg/kg and for product A-B was 6.8 mg/kg. The acute toxicity of product A is only about 1.8 times greater than product A-B.

For O=C(CC1NCCCC1O)Cn1cnc2cc(Br)c(Cl)cc2c1=O (racemic) [Product A-B, 7-bromo-6-chloro-3-[3-(3-hydroxy-2-piperidyl)-acetonyl]-4(3H)-quinazolinone, reference compound], the “weight gain” value [1] was 90.30 g, the “weight gain (or less) as compared to the animals which received product A-B” value [1] was 0% and the consumption index [1] was 2.018. It also gave an LD50 [2] of 6.8 mg/kg.
In the case of O=C(C[C@H]1NCCC[C@@H]1O)Cn1cnc2cc(Br)c(Cl)cc2c1=O (single isomer, unassigned) [Product A, dextrorotary 7-bromo-6-chloro-3-[3-(3-hydroxy-2-piperidyl)-acetonyl]-4(3H)-quinazolinone hydrobromide], the “weight gain” value [1] was 103.07 g, the “weight gain (or less) as compared to the animals which received product A-B” value [1] was “+14.14%” and the consumption index [1] was 1.807. For the same compound, the “coccidiostatic activity greater than the racemic product A-B” value ([1]; ratio to racemic mixture) was 3 times, the LD50 [2] was 3.7 mg/kg and the “acute toxicity greater than product A-B” value ([2]; ratio to racemic mixture) was “about 1.8 times”.
